PMC9820411, “Late-Stage Functionalization through Click Chemistry Provides GLUT5-Targeting Glycoconjugate as a Potential PET Imaging Probe” (International Journal of Molecular Sciences, 2022)

Molecular target: T1, GLUT5 (Homo sapiens, UniProt P22732)
T1 construct: gene SLC2A5
T1 sequence (P22732 1-501): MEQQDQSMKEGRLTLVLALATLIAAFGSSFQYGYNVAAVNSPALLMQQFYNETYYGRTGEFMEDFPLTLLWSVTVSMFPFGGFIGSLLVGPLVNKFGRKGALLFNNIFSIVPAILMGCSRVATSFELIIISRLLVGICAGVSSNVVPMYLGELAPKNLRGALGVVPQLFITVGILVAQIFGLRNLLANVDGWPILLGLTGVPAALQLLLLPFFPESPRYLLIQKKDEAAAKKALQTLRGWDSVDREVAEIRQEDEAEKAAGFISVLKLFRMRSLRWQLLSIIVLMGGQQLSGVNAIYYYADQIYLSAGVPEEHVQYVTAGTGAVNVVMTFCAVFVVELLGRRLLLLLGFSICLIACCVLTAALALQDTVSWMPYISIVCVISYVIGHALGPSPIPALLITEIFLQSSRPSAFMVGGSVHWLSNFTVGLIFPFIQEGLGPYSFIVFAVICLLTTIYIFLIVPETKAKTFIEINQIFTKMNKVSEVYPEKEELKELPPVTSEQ
Test: competition with ManCou-F uptake in MCF7 cells
Assay type: cell-based

OC[C@H]1OC(O)(CO)[C@@H](O)[C@@H]1O (stereo partly shown) [fructose]
IC50: ~28 mM
